According to patent EP4582418A1, “CRYSTALLINE FORM OF QUINOLINE DERIVATIVE INHIBITOR, PREPARATION METHOD THEREFOR AND USE THEREOF” (TransThera Sciences (Nanjing), Inc., priority 2022, dated 2024):

Columns and labels:
[1] = PK evaluation of crystal forms in rats; type: in vivo
Protocol: The experimental crystal forms I and II of the methanesulfonate of the compound of formula (I) were each prepared into a suspension solution with 0.5% HPMC. The compound solutions were intragastrically administered to SD rats at a dose of 60 mg/kg. Blood samples were collected at time points of 15 min, 30 min, 1 h, 2 h, 4 h, 6 h, 8 h, 24 h, 48 h, 72 h, and 96 h after administration.
The animals were fixed, with tails warmed in a water bath 10 min before each sampling time point. About 100 µL of blood was collected via the tail vein, and the blood samples were collected in anticoagulation tubes containing EDTA-K2. The blood samples were then centrifuged at 8,000 rpm for 6 min at 4 °C to give plasma samples. The plasma samples were prepared within 30 min after blood collection. The plasma samples were stored in a refrigerator at -80 °C before the test.
The sample to be tested was taken out from the -80 °C refrigerator, naturally thawed at room temperature, and vortexed for 5 min. 20 µL of plasma sample was precisely pipetted to a 1.5 mL centrifuge tube, and 200 µL of internal standard working solution (a solution of tolbutamide in methanol, 100 ng/mL) was added. The resulting mixture was thoroughly mixed, vortexed for 5 min, and centrifuged at 12,000 rpm for 5 min. 50 µL of supernatant was precisely pipetted to a 96-well plate pre-loaded with 150 µL of water per well, and the resulting mixture was vortexed for 5 min and then used for LC-MS/MS analysis.
The concentrations of the test samples were calculated by Analyst 1.6.3 from AB Sciex. Parameters such as mean, standard deviation, and coefficient of variation (excluding those output directly by Analyst 1.6.3) were calculated by Microsoft Excel. PK parameters were calculated by Pharsight Phoenix 6.1 software NCA (Tmax was in median).

[2] = Stability test under influencing factors (high temperature, high humidity, illumination); type: physicochemical
Protocol: Test substances: the crystal forms I, II, III, and IV of the methanesulfonate of the compound of formula (I) of the present disclosure.
Methodology: Appropriate amounts of samples of the crystal forms I, II, III, and IV of the methanesulfonate of the compound of formula (I) were separately left to stand open under the conditions of a high temperature (60 °C), a high humidity (RH 92.5%), and illumination (4500±500 Lux); sampling was performed on days 5, 10, and 30 to investigate changes in the appearance, purity, and crystal form of the samples.

H1299 cell pAXL = biological target: T1, H1299 cell pAXL (Homo sapiens, UniProt P30530); assay: Inhibitory activity on cell pAXL (Western Blot, hGAS6 stimulation); type: cell-based; settings: H1299 cells, 60 min compound then hGAS6 200 ng/mL 60 min
T1 construct: endogenous in cells; host or cells: H1299
T1 sequence (P30530 26-894): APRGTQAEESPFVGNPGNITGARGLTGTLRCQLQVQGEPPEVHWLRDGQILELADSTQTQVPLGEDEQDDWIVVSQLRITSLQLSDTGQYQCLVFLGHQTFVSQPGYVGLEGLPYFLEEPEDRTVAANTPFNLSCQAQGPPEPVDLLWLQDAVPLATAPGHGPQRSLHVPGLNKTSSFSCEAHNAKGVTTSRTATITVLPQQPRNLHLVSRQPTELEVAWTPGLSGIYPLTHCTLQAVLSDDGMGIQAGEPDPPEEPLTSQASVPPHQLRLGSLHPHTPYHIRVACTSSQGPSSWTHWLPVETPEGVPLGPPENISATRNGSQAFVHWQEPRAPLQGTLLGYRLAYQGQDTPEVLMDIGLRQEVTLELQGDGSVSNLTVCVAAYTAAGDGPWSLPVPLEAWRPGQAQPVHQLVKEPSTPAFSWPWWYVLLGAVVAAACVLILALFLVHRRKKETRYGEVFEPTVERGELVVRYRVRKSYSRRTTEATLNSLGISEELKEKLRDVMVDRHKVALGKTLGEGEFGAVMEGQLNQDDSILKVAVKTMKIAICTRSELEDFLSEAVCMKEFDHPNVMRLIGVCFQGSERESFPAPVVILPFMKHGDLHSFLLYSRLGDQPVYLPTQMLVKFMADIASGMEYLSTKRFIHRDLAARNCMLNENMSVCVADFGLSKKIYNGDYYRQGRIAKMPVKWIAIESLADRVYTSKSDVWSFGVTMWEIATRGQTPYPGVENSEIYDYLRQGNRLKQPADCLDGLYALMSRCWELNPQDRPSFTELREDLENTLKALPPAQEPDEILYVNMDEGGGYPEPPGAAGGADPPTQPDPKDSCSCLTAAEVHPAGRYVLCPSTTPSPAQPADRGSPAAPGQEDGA
Protocol: H1299 is a non-small cell lung cancer cell line.
Test substance: the crystal form of the methanesulfonate of the compound of formula (I) of the present disclosure, having the structure shown above.
Test instruments: protein electrophoresis apparatus (Bio Rad), membrane transfer apparatus (Bio Rad), exposure apparatus (Tanon), CO2 cell incubator (Thermo), and the like.
H1299 cells were inoculated into a 6-well plate (containing 10% FBS 1640 medium, 5 × 10^5 cells/well) and adherently cultivated at 37 °C with 5% CO2 for 18 h. The cells were starved overnight, and different concentrations of the compound were added. The final compound concentrations were 0.37 nM, 1.1 nM, 3.3 nM, 10 nM, and 30 nM, with the final DMSO content in each compound well being 1 ‰. The negative control well contained medium with 1‰ DMSO. The cells were incubated at 37 °C with 5% CO2 for 60 min, and then hGAS6 (R&D, final concentration: 200 ng/mL) was added to each well. The cells were incubated for another 60 min, and then the total protein of the cells was extracted for a Western Blot experiment to assay the inhibitory activity of the compound on cell pAXL.

[3] = Left to stand open at 60 °C for 5 days
[4] = Left to stand open at 60 °C for 10 days
[5] = Left to stand open at 60 °C for 30 days
[6] = Left to stand open at RH 92.5% for 5 days
[7] = Left to stand open at RH 92.5% for 10 days
[8] = Left to stand open at RH 92.5% for 30 days
[9] = Left to stand open under illumination (4500±500 Lux) for 5 days
[10] = Left to stand open under illumination (4500±500 Lux) for 10 days
[11] = Left to stand open under illumination (4500±500 Lux) for 30 days

- λ_z ([1]; SD rats, PO 60 mg/kg, n = 3, suspension in 0.5% HPMC): 0.018 h⁻¹
- AUC(0-t) ([1]; SD, rat, plasma, po, 60 mg/kg, 0-96 h, n = 3): 4020 µg·h/mL
- Tmax ([1]; SD, rat, plasma, po, 60 mg/kg, median, n = 3, read-out: Tmax): 8 h
- Cmax ([1]; SD, rat, plasma, po, 60 mg/kg, n = 3, read-out: Cmax): 69 µg/mL
- tz1/2 ([1]; terminal half-life, SD rats, PO 60 mg/kg, n = 3): 38.6 h
- Appearance ([2]; 0 days): White or off-white solid
- Purity ([2]; 0 days): 99.69%
- Appearance [2, 3]: White or off-white solid
- Purity [2, 3]: 99.70%
- Appearance [2, 4]: White or off-white solid
- Purity [2, 4]: 99.68%
- Appearance [2, 5]: White or off-white solid
- Purity [2, 5]: 99.67%
- Appearance [2, 6]: White or off-white solid
- Purity [2, 6]: 99.69%
- Appearance [2, 7]: White or off-white solid
- Purity [2, 7]: 99.68%
- Appearance [2, 8]: White or off-white solid
- Purity [2, 8]: 99.67%
- Appearance [2, 9]: White or off-white solid
- Purity [2, 9]: 99.70%
- Appearance [2, 10]: White or off-white solid
- Purity [2, 10]: 99.69%
- Appearance [2, 11]: White or off-white solid
- Purity [2, 11]: 99.69%
- changes in the appearance and purity ([2]; left to stand under conditions of the influencing factors for 30 days): no significant changes
- IC50 (H1299 cell pAXL): < 0.37 nM
Structure (SMILES): COc1cc2nccc(Oc3ccc(NC(=O)c4nn(C(C)C)cc(-c5ccc(F)cc5)c4=O)nc3)c2cc1OC [Crystal form I, N-(5-((6,7-dimethoxyquinolin-4-yl)oxy)pyridin-2-yl)-5-(4-fluorophenyl)-1-isopropyl-4-oxo-1,4-dihydropyridazine-3-carboxamide]
